Reference: patent publication EP2216022A1, “USE OF C[…] THE TREATMENT OF BASAL CELL CARCINOMA AND OTHER TUMORS” (Tas, Sinan, priority 2001, dated 2002)

Experiments:
Assay type in all cases: in vivo, patient
[1] = test system: basal cell carcinomas (BCC's); test: Topical cyclopamine cream on basal cell carcinomas: clinical regression; details: Two BCC's (nasolabial fold, forehead); topical cream 18 mM cyclopamine, 10 ± 2 µl four times per day; visual disappearance of several tumor areas within less than a week, loss of translucency
Source text: (§1) These regions are seen to contain residual BCC`s displaying large cysts in the tumor center and smaller cystic structures of various sizes located among the residual BCC cells towards the periphery. • Fig 2D and Fig 2E show 1000X magnified appearances from the interior and palisading peripheral regions of these residual BCC's and show the presence of massive apoptotic activity among the residual BCC cells regardless of the tumor region.
1C : BCC, located on forehead, prior to tretment.

BCC cells [2] = test: Apoptosis by morphological criteria on hematoxylene-eosine stained sections of excised treated BCC's; details: topical cream 18 mM cyclopamine, 10 ± 2 µl four times per day, excised on fifth and sixth days, means ± standard deviations, at least 16 high-power (1000 X) fields, p < 0.001 vs placebo
Source text: as §1
Cells undergoing apoptosis are known to be removed by macrophages and by nearby cells in normal tissues and the quantitation of apoptotic activity by morphological criteria on hematoxylene-eosine stained sections is known to provide an underestimate.
Fig 2A, 2B, 2C, 2D, 2E, 2F : Microscopic appearences of the cyclopamine- and placebo-treated BCC's, showing the cyclopamine-induced massive apoptotic death and removal of the tumor cells and the disappearence of tumor nodules to leave behind cystic spaces with no tumor cells. Skin areas corresponding to the pre-treatment positions of the BCC's were excised surgically on the fifth and sixth days of cyclopamine exposure with a margin of normal tissue and subjected to conventional fixation, sectioning and hematoxylene-eosine staining for microscopic analyses. 2A : Large cyst in the dermis corresponding to the position of a disappeared tumor nodule showing no residual tumor cells. […]

BCC cells [3] = test: Immunohistochemical Ber-Ep4 labelling (differentiation marker) of treated BCC's; details: topical cream 18 mM cyclopamine, four times per day, excised on fifth and sixth days, means ± standard deviations, p < 0.001 vs placebo
Source text: as §1
The loss of translucency in the cyclopamine-treated BCC's raises the intriguing possibility of differentiation of BCC's under the influence of cyclopamine. This possibility, which can be tested by immunohistochemical analyses of the BCC's, is found to be the case in this invention. In normal epidermis, differentiation of basal tayer cells to the upper layer cells is accompanied by a loss of labelling with the monoclonal antibody Ber-Ep4. Ber-Ep4 labels also the BCC cells and is a known marker for these neoplasms.
(§2) Ber-Ep4 is a known differentiation marker that stains the BCC cells as well as the undifferentiated cells of the normal epidermis basal layer and of hair follicles but not the differentiated upper layer cells of normal epidermis. […] 3D and 3E : Decreased expression of p53 as detected by the monoclonal antibody DO-7 in cyclopamine-treated BCC's (3D) in comparison to the placebo-treated BCC's (3E). Expression of p53 is known to decrease upon differentiation of the epidermal basal cells and upon differentiation of cultured keratinocytes. It is also well known that the amount of p53, detectable by DO-7, increases in cells when they are exposed to DNA-damaging agents. […] Original magnifications are 400X for 3A, 3B, 3D, 3E, 1000X for 3C and 100X for 3F, 3G. All immunohistochemical labellings are with peroxidase-conjugated streptavidin binding to biotinylated secondary antibody; labelling is Indicated by the brown-colored staging. Sections shown in 3F and 3G are stained with Periodic Acid-Schiff and Alcian blue.

p53 = test: Immunohistochemical DO-7 labelling (p53 expression) of treated BCC's; details: topical cream 18 mM cyclopamine; for % Of Cells Labelled With DO-7: four times per day, excised on fifth and sixth days, means ± standard deviations, p < 0.001 vs placebo
Source text: as §1
The p53 is a master regulator of the cellular response to DNA-damage. Amount of this protein is known to increase in the cell nucleus following exposure of cells to genotoxic agents. When the DNA-damage is increased beyond a threshold, p53 serves for the apoptotic death of cells. Radiation therapy of cancer and the genotoxic cancer chemotherapeutics that are currently common, act largely by this mechanism, i.e. by causation of apoptosis secondary to the damaging of DNA. The monoclonal antibody DO-7 can bind both normal and missense mutant (i.e., nonfunctional) forms of p53 and is known to be capable of detecting the increase of p53 in the cells following exposure to DNA-damaging agents.
Since expression of p53 is known to decrease in epidermal cells upon differentiation, the decreased DO-7 labelling of the cyclopamine-treated BCC's is likely to be secondary to the cyclopamine-induced differentiation of the BCC cells.
(§3) Ber-Ep4 is a known differentiation marker that stains the BCC cells as well as the undifferentiated cells of the normal epidermis basal layer and of hair follicles but not the differentiated upper layer cells of normal epidermis. […] 3D and 3E : Decreased expression of p53 as detected by the monoclonal antibody DO-7 in cyclopamine-treated BCC's (3D) in comparison to the placebo-treated BCC's (3E). Expression of p53 is known to decrease upon differentiation of the epidermal basal cells and upon differentiation of cultured keratinocytes. It is also well known that the amount of p53, detectable by DO-7, increases in cells when they are exposed to DNA-damaging agents. […]

BCC cells [4] = test: Ulex Europaeus lectin type 1 labelling (differentiation marker) of treated BCC's; details: Residual cells of cyclopamine-treated BCC's; lectin normally does not label BCC's; topical cream 18 mM cyclopamine
Source text: as §1
as §2, with “Sections shown in 3F and 3G are stained with Periodic Acid-Schiff and Alcian blue.” left out

BCC's = test: Retraction of treated BCC's from stroma (arrest of proliferation), Periodic Acid-Schiff and Alcian blue sections; details: Cyclopamine-treated but not placebo-treated BCC's; associated with arrest of proliferation; topical cream 18 mM cyclopamine
Source text: as §1
Arrest of the proliferation of BCC's is known to be associated with their retraction from stroma. Although retraction from stroma can also be caused artefactually by improper fixation and processing of the tissues, adherence to published technical details ensures avoidance of such artefacts.
as §3

[5] = test system: normal epidermis and hair follicles; details: Normal skin exposed to the same schedule and doses of cyclopamine as the BCC's; undifferentiated basal layer cells preserved
Source text: as §1
4B and 4C Higher power views from different areas of cyclopamine-treated epidermis showing Ber-Ep4 labelling of the basal cells. […] Original magnification is 400X for 4A and 1000X for 4B, 4C, 4D, immunohistochemical detection procedure is the same as in Fig 3A, 3B; labelling is indicated by brown coloring.

[6] = Non-palisading (interior) cells of the BCC's
[7] = Peripheral palisading cells of the BCC's

CC1=C2C[C@H]3[C@@H](CC=C4C[C@@H](O)CC[C@@]43C)[C@@H]2CC[C@]12O[C@@H]1C[C@H](C)CN[C@H]1[C@H]2C [Cyclopamine]
clinical regressions of the BCC's [1]: rapid clinical regressions
% Of Cells Showing ≥ 2 Morphological Signs Of Apoptosis On H&E Stained Tissue Sections (BCC cells [2]; [6]): 18 ± 11%
% Of Cells Showing ≥ 2 Morphological Signs Of Apoptosis On H&E Stained Tissue Sections (BCC cells [2]; [7]): 20 ± 8%
% Of Cells Labelled With Ber-Ep4 (BCC cells [3]; [6]): 0 ± 0%
% Of Cells Labelled With Ber-Ep4 (BCC cells [3]; Non-palisading (interior) cells of the BCC's, listed as cyclopamine): none
% Of Cells Labelled With Ber-Ep4 (BCC cells [3]; [7]): 0 ± 0%
% Of Cells Labelled With Ber-Ep4 (BCC cells [3]; Peripheral palisading cells of the BCC's, listed as cyclopamine): none
DO-7 labelling intensity and the frequency of labelled cells (p53; Cyclopamine-treated BCC's in comparison to placebo-treated BCC's): markedly decreased
% Of Cells Labelled With DO-7 (p53; [6]): 5 ± 3%
% Of Cells Labelled With DO-7 (p53; [7]): 16 ± 11%
labelling of the residual cells with Ulex Europaeus lectin type 1 (BCC cells [4]): heterogenous labelling
retraction of BCC's from stroma (BCC's): consistently retracted from stroma
pattern of labelling with Ber-Ep4 of cyclopamine-treated normal epidermis and hair follicle [5]: normal pattern of labelling
